From patent publication US9682995B2, “Amino-substituted isothiazoles” (BAYER PHARMA AKTIENGESELLSCHAFT, priority 2013, dated 2017)

Columns and labels:
Assay in all cases: Kinase Profiling (KINOMEscan)
Format in all cases: binding
[1] = target: 456 kinases (of these 395 non-mutant kinases) (Homo sapiens, UniProt O00506); conditions: YSK1; 10 μM
[2] = target: 456 kinases (of these 395 non-mutant kinases) (Homo sapiens, UniProt O14578); conditions: CIT; 10 μM
[3] = target: 456 kinases (of these 395 non-mutant kinases) (Homo sapiens, UniProt P00519, F317L); conditions: 10 μM
[4] = target: 456 kinases (of these 395 non-mutant kinases) (Homo sapiens, UniProt P08922); conditions: ROS1; 10 μM
Sequence of 456 kinases (of these 395 non-mutant kinases) (Homo sapiens, UniProt P08922) (P08922 28-2347 limits assumed, change not shown): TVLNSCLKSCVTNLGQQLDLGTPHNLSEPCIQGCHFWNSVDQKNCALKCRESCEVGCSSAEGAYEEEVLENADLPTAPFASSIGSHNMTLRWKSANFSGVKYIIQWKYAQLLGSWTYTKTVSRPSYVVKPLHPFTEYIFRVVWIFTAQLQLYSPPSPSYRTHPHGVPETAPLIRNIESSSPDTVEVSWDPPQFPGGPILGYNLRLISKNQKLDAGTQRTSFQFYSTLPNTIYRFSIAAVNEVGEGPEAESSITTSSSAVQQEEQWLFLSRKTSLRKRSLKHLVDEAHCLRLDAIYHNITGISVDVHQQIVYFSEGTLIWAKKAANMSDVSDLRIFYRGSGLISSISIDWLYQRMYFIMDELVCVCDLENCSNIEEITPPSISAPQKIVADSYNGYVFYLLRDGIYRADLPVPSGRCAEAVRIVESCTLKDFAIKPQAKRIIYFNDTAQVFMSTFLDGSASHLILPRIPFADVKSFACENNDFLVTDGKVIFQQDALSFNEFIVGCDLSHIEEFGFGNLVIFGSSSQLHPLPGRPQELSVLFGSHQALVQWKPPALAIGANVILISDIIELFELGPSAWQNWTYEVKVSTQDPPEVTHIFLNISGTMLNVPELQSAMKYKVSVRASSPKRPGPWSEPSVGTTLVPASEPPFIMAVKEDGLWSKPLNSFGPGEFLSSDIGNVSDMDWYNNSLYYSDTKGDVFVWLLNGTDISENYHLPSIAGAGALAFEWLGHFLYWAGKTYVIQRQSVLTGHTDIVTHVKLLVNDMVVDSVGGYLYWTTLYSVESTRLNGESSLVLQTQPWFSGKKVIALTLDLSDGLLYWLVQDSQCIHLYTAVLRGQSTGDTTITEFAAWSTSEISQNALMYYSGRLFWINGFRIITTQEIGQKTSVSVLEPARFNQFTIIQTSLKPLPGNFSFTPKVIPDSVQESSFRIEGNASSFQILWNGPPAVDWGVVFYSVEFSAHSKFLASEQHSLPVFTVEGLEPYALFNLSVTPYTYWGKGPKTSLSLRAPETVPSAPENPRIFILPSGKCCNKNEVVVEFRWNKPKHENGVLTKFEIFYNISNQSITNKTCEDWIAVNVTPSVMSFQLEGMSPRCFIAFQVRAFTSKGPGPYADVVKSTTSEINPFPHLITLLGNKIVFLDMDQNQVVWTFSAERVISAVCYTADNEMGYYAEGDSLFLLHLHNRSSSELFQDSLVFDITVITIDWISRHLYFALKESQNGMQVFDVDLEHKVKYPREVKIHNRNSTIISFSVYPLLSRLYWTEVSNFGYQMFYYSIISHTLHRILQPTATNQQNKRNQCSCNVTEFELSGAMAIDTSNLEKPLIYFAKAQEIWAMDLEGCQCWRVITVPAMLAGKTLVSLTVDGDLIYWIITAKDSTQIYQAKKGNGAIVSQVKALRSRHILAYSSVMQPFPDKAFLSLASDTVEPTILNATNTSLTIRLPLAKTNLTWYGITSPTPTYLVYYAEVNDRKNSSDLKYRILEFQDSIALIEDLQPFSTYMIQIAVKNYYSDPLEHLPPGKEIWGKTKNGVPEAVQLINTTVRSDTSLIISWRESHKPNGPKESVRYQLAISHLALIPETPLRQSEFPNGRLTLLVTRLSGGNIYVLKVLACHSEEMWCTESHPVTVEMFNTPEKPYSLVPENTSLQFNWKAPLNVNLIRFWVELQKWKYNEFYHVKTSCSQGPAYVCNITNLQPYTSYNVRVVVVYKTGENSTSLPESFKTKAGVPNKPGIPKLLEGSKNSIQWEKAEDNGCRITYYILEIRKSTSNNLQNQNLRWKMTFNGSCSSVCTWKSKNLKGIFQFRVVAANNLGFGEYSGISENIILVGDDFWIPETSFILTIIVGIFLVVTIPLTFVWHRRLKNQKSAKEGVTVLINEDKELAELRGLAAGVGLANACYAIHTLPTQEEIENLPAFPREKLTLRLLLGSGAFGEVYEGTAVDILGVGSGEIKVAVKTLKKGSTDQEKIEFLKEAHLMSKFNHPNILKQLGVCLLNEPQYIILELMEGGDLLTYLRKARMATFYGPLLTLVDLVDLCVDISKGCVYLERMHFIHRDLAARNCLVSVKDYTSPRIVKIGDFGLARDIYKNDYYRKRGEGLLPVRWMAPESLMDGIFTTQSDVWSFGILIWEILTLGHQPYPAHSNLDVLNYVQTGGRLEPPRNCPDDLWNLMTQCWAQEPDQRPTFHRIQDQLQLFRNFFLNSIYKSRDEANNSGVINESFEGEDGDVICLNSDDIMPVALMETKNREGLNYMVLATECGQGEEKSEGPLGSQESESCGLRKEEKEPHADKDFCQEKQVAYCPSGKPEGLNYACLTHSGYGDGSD

[5] = target: 456 kinases (of these 395 non-mutant kinases) (Homo sapiens, UniProt P17612); conditions: PKAC-alpha; 10 μM
[6] = target: 456 kinases (of these 395 non-mutant kinases) (Homo sapiens, UniProt P29317); conditions: EPHA2; 10 μM
Sequence of 456 kinases (of these 395 non-mutant kinases) (Homo sapiens, UniProt P29317) (P29317 24-976 limits assumed, change not shown): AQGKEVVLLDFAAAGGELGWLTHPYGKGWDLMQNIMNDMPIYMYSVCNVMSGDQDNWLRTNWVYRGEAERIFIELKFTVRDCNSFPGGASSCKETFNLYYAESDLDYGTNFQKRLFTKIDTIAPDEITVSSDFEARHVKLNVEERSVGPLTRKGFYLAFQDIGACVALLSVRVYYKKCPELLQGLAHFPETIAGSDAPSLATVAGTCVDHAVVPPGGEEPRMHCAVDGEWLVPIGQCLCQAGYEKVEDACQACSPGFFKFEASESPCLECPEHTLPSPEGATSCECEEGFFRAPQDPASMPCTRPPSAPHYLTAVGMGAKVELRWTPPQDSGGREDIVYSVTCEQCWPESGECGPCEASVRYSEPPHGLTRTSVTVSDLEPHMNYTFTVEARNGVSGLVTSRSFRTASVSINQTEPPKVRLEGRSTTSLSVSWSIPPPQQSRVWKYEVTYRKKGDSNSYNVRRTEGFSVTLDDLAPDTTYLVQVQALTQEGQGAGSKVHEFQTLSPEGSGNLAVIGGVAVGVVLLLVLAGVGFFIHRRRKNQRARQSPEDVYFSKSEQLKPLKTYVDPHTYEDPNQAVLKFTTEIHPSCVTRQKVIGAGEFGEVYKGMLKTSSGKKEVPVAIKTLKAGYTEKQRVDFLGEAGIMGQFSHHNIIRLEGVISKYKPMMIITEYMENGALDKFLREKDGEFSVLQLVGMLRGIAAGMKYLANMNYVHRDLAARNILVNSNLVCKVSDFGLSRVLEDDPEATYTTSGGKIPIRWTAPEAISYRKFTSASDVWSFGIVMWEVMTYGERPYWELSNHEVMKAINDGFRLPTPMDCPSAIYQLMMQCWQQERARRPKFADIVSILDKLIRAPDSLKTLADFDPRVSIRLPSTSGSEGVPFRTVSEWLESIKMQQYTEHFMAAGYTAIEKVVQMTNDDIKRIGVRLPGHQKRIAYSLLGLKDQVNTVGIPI

[7] = target: 456 kinases (of these 395 non-mutant kinases) (Homo sapiens, UniProt P36507); conditions: MEK2; 10 μM
[8] = target: 456 kinases (of these 395 non-mutant kinases) (Homo sapiens, UniProt P36888); conditions: 10 μM
Sequence of 456 kinases (of these 395 non-mutant kinases) (Homo sapiens, UniProt P36888) (P36888 27-993 limits assumed, change not shown): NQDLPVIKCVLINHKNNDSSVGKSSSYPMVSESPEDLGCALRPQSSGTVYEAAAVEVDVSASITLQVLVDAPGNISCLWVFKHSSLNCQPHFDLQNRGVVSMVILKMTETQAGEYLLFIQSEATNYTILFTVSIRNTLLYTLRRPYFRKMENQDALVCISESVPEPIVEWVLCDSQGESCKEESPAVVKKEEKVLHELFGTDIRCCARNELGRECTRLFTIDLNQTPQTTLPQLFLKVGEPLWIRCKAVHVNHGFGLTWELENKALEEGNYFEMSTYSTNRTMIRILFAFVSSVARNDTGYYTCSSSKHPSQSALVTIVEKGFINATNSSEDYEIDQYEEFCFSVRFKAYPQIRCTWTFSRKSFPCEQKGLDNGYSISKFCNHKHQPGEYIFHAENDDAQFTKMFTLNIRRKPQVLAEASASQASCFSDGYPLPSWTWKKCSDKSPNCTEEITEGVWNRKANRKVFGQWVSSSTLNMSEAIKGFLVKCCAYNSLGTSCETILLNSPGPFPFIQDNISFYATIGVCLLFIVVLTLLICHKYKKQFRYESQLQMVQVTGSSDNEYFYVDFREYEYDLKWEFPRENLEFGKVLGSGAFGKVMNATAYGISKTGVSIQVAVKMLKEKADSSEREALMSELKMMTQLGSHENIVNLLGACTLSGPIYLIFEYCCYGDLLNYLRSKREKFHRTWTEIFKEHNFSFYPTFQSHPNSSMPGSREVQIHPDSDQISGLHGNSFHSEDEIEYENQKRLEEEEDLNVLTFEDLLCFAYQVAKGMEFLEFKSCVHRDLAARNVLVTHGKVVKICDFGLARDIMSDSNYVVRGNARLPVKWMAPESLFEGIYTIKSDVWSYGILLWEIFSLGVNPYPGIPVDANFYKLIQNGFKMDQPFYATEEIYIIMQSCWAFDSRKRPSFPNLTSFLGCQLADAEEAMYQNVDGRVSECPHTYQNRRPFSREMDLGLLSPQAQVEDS

[9] = target: 456 kinases (of these 395 non-mutant kinases) (Homo sapiens, UniProt P37173); conditions: TGFBR2; 10 μM
Sequence of 456 kinases (of these 395 non-mutant kinases) (Homo sapiens, UniProt P37173) (P37173 23-567 limits assumed, stated change not applied): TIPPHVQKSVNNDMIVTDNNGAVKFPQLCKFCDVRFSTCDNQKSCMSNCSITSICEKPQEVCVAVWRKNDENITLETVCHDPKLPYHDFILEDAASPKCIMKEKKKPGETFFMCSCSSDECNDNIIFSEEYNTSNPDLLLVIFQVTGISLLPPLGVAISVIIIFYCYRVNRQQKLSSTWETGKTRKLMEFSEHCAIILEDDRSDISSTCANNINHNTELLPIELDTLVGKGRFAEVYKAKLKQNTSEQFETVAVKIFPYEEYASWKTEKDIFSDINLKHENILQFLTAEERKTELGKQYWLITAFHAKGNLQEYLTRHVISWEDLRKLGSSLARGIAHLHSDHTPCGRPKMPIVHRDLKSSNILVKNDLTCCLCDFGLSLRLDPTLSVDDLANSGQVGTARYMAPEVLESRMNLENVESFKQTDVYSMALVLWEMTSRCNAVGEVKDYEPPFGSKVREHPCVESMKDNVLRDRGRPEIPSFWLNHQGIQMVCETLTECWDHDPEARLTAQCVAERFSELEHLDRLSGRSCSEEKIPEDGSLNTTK

[10] = target: 456 kinases (of these 395 non-mutant kinases) (Homo sapiens, UniProt P42336, E545A); conditions: PIK3CA(E545A); 10 μM
[11] = target: 456 kinases (of these 395 non-mutant kinases) (Homo sapiens, UniProt P42336, M1043I); conditions: PIK3CA(M1043I); 10 μM
[12] = target: 456 kinases (of these 395 non-mutant kinases) (Homo sapiens, UniProt P45984); conditions: JNK2; 10 μM
[13] = target: 456 kinases (of these 395 non-mutant kinases) (Homo sapiens, UniProt P48730); conditions: CSNK1D; 10 μM
[14] = target: 456 kinases (of these 395 non-mutant kinases) (Homo sapiens, UniProt P49137); conditions: MAPKAPK2; 10 μM
[15] = target: 456 kinases (of these 395 non-mutant kinases) (Homo sapiens, UniProt P49841); conditions: GSK3B; 10 μM
[16] = target: 456 kinases (of these 395 non-mutant kinases) (Homo sapiens, UniProt P53350); conditions: PLK1; 10 μM
[17] = target: 456 kinases (of these 395 non-mutant kinases) (Homo sapiens, UniProt P57059); conditions: SIK; 10 μM
[18] = target: 456 kinases (of these 395 non-mutant kinases) (Homo sapiens, UniProt Q02779); conditions: MLK2; 10 μM
[19] = target: 456 kinases (of these 395 non-mutant kinases) (Homo sapiens, UniProt Q07912); conditions: TNK2; 10 μM
[20] = target: 456 kinases (of these 395 non-mutant kinases) (Homo sapiens, UniProt Q13043); conditions: MST1; 10 μM
[21] = target: 456 kinases (of these 395 non-mutant kinases) (Homo sapiens, UniProt Q13555); conditions: CAMK2G; 10 μM
[22] = target: 456 kinases (of these 395 non-mutant kinases) (Homo sapiens, UniProt Q16659); conditions: ERK3; 10 μM
[23] = target: 456 kinases (of these 395 non-mutant kinases) (Homo sapiens, UniProt Q86YV6); conditions: MYLK4; 10 μM
[24] = target: 456 kinases (of these 395 non-mutant kinases) (Homo sapiens, UniProt Q8IYT8); conditions: ULK2; 10 μM
[25] = target: 456 kinases (of these 395 non-mutant kinases) (Homo sapiens, UniProt Q8TF76); conditions: HASPIN; 10 μM
[26] = target: 456 kinases (of these 395 non-mutant kinases) (Homo sapiens, UniProt Q99640); conditions: PKMYT1; 10 μM
[27] = target: 456 kinases (of these 395 non-mutant kinases) (Homo sapiens, UniProt Q9BUB5); conditions: MKNK1; 10 μM
[28] = target: 456 kinases (of these 395 non-mutant kinases) (Homo sapiens, UniProt Q9BWU1); conditions: CDK11; 10 μM
[29] = target: 456 kinases (of these 395 non-mutant kinases) (Homo sapiens, UniProt Q9H093); conditions: SNARK; 10 μM
[30] = target: 456 kinases (of these 395 non-mutant kinases) (Homo sapiens, UniProt Q9H0K1); conditions: SIK2; 10 μM
[31] = target: 456 kinases (of these 395 non-mutant kinases) (Homo sapiens, UniProt Q9UIK4); conditions: DAPK2; 10 μM
[32] = target: 456 kinases (of these 395 non-mutant kinases) (Homo sapiens, UniProt Q9Y2K2); conditions: QSK; 10 μM

## CCc1ccccc1NC(=O)c1c(C)nsc1Nc1cnc2cc(F)ccc2n1 [Example 20, N-(2-Ethylphenyl)-5-[(6-fluoroquinoxalin-2-yl)amino]-3-methyl-1,2-thiazole-4-carboxamide]
[1]
  % Ctrl @ 10 μM: 100 % Ctrl
[2]
  % Ctrl @ 10 μM: 80 % Ctrl
[3]; ABL1(F317L)-nonphosphorylated
  % Ctrl @ 10 μM: 100 % Ctrl
[3]; ABL1(F317L)-phosphorylated
  % Ctrl @ 10 μM: 100 % Ctrl
[4]
  % Ctrl @ 10 μM: 89 % Ctrl
[5]
  % Ctrl @ 10 μM: 91 % Ctrl
[6]
  % Ctrl @ 10 μM: 88 % Ctrl
[7]
  % Ctrl @ 10 μM: 100 % Ctrl
[8]; FLT3-autoinhibited
  % Ctrl @ 10 μM: 100 % Ctrl
[8]; FLT3
  % Ctrl @ 10 μM: 80 % Ctrl
[9]
  % Ctrl @ 10 μM: 100 % Ctrl
[10]
  % Ctrl @ 10 μM: 95 % Ctrl
[11]
  % Ctrl @ 10 μM: 76 % Ctrl
[12]
  % Ctrl @ 10 μM: 100 % Ctrl
[13]
  % Ctrl @ 10 μM: 86 % Ctrl
[14]
  % Ctrl @ 10 μM: 89 % Ctrl
[15]
  % Ctrl @ 10 μM: 100 % Ctrl
[16]
  % Ctrl @ 10 μM: 87 % Ctrl
[17]
  % Ctrl @ 10 μM: 100 % Ctrl
[18]
  % Ctrl @ 10 μM: 78 % Ctrl
[19]
  % Ctrl @ 10 μM: 93 % Ctrl
[20]
  % Ctrl @ 10 μM: 79 % Ctrl
[21]
  % Ctrl @ 10 μM: 75 % Ctrl
[22]
  % Ctrl @ 10 μM: 68 % Ctrl
[23]
  % Ctrl @ 10 μM: 100 % Ctrl
[24]
  % Ctrl @ 10 μM: 100 % Ctrl
[25]
  % Ctrl @ 10 μM: 100 % Ctrl
[26]
  % Ctrl @ 10 μM: 100 % Ctrl
[27]
  % Ctrl @ 10 μM: 100 % Ctrl
[28]
  % Ctrl @ 10 μM: 100 % Ctrl
[29]
  % Ctrl @ 10 μM: 100 % Ctrl
[30]
  % Ctrl @ 10 μM: 84 % Ctrl
[31]
  % Ctrl @ 10 μM: 73 % Ctrl
[32]
  % Ctrl @ 10 μM: 91 % Ctrl
